In general, IC50 refers to the point on the concentration scale where inhibition reaches its midpoint. A low value points to inhibition by little substance.

The target in the assay is T1, H+/K+-ATPase (Sus scrofa, UniProt P19156).
T1 construct: reaction buffer solution (60 mmol/l Tris-HCl buffer solution, pH 7.4) containing hog gastric vesicle; from tissue; host or cells: hog stomach (gastric vesicles, by centrifugation after Rabon et al. 1988)
T1 sequence (P19156 2-1034 limits assumed): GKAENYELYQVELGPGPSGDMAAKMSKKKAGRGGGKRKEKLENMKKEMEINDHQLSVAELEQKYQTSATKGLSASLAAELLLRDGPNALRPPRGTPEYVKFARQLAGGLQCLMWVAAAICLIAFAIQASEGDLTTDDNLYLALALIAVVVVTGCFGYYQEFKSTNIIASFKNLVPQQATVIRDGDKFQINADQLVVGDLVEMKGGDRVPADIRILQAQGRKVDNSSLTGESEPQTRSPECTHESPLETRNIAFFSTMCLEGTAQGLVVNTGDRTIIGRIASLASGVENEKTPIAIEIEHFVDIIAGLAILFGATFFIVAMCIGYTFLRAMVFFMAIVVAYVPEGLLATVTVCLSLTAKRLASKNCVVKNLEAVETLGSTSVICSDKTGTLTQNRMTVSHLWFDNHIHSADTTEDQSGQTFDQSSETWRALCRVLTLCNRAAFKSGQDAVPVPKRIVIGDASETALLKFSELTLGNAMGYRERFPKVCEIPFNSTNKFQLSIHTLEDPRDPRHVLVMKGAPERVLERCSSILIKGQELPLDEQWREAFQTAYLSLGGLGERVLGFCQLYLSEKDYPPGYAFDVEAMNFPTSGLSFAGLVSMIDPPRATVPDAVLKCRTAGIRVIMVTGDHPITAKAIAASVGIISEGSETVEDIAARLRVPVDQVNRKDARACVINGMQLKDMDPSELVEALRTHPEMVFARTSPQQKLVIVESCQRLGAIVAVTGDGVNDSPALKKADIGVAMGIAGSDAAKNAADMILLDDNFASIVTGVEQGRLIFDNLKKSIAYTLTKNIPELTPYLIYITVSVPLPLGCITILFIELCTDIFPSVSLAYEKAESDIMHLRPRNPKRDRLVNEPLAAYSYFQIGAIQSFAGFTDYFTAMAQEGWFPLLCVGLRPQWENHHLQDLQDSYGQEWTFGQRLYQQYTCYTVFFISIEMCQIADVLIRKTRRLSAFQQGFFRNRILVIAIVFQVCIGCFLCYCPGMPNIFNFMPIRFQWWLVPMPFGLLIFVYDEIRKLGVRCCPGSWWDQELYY
T1 sequence (P18434 whole entry partner): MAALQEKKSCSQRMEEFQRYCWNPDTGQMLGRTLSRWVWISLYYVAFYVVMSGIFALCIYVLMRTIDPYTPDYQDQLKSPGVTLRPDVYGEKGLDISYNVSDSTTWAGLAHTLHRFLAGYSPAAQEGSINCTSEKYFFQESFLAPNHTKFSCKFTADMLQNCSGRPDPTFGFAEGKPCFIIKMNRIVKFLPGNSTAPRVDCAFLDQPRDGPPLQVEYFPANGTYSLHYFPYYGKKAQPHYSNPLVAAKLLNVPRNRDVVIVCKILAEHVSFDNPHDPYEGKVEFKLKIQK
The experiment in a line: Inhibition of proton pump (H+/K+-ATPase) activity in hog gastric vesicles. It is filed as biochemical. To be noted: K+ specific H+/K+-ATPase activity, pH 7.4, 37° C. for 40 minutes, malachite green. The procedure: 1) Preparation of Gastric Vesicles
Gastric vesicles were prepared from hog stomach by centrifugation (Edd C. Rabon et al., Preparation of Gastric H^+,K^+-ATPase, Methods in enzymology, vol. 157 Academic Press Inc., (1988), pp. 649-654). The protein contents of the prepared gastric vesicles were quantified with a Bicinchoninic Acid (BCA) kit.
2) Measurement of Effect of Inhibiting Proton Pump (H^+/K^+-ATPase) Activity
The effect of inhibiting proton pump activity by the compound of the present invention was measured in a 96-well plate. In this experiment, K^+ specific H^+/K^+-ATPase activity was calculated based on the difference between H^+/K^+-ATPase activity in the presence of K^+ ions and H^+/K^+-ATPase activity in the absence of K^+ ions. In the 96-well plate, to negative and positive control groups, 0.5% dimethylsulfoxide (DMSO) in buffer was added, and to the test groups, the compound of the present invention was added. All the analyses were conducted at room temperature with the reaction volume of 100 μl. To a reaction buffer solution (60 mmol/l Tris-HCl buffer solution, pH 7.4) containing hog gastric vesicle, DMSO and each concentration of compound were added, and then, 10 μl of a 10 mmol/l adenosine triphosphate tris buffer solution (60 mmol/l Tris-HCl buffer solution, pH 7.4) was added to initiate an enzyme reaction. The enzyme reaction was conducted at 37° C. for 40 minutes, 50 μl of a malachite green solution (0.12% malachite green solution, 5.8% ammonium molybdate and 11% tween 20 were mixed at a ratio of 100:67:2 in 6.2 N sulfuric acid) was added to stop the reaction, and 50 μl of 15.1% sodium citrate was added. During the reaction, the amount of monophosphate (Pi) was measured at 570 nm using micro plate reader (FLUOstar Omega, BMG Company). Inhibition rate (%) was measured from the activity values of the control groups and the activity values of various concentrations of the test compound, and IC50 of the test compound was calculated from each % inhibition value of the compound using Logistic 4-parameter function of Sigmaplot 8.0 program.
`CNC1CCc2c1cn(S(=O)(=O)c1cccc(OC(F)F)c1)c2-c1ccccc1F` (centres unmarked) [Example 57, 2-((3-(difluoromethoxy)phenyl)sulfonyl)-1-(2-fluorophenyl)-N-methyl-2,4,5,6-tetrahydrocyclopenta[c]pyrrol-4-amine] registered a half-inhibitory concentration (IC50) of 420 nM.

`CNC1CCc2c1cn(S(=O)(=O)c1cccc(Cl)c1)c2-c1cc(C)sc1C` (centres unmarked) [Example 35, 2-((3-chlorophenyl)sulfonyl)-1-(2,5-dimethylthiophen-3-yl)-N-methyl-2,4,5,6-tetrahydrocyclopenta[c]pyrrol-4-amine] had a 50% inhibitory concentration (IC50) of 840 nM.

Molecule `CN(C)C1CCCc2c1cn(S(=O)(=O)c1cccc(F)c1)c2-c1ccccc1F` (centres unmarked) [Example 136, 1-(2-fluorophenyl)-2-((3-fluorophenyl)sulfonyl)-N,N-dimethyl-4,5,6,7-tetrahydro-2H-isoindole-4-amine] gave a concentration for half-maximal inhibition (IC50) of 15000 nM.

As for `CNC1CCc2c1cn(S(=O)(=O)c1cc(C(F)(F)F)ccc1Cl)c2-c1ccccc1F` (centres unmarked) [Example 74, 2-((2-chloro-5-(trifluoromethyl)phenyl)sulfonyl)-1-(2-fluorophenyl)-N-methyl-2,4,5,6-tetrahydrocyclopenta[c]pyrrol-4-amine], half-maximal inhibition (IC50) was put at 520 nM.

With `CNC1CCc2c1cn(S(=O)(=O)c1cccnc1)c2-c1ccc(C)cc1F` (centres unmarked) [Example 90, 1-(2-fluoro-4-methylphenyl)-N-methyl-2-(pyridin-3-ylsulfonyl)-2,4,5,6-tetrahydrocyclopenta[c]pyrrol-4-amine], inhibition was half-maximal at 520 nM (IC50).

For the molecule `CNC1CCc2c1cn(S(=O)(=O)c1cnc3onc(C)c3c1)c2-c1ccccc1F` (centres unmarked) [Example 97, 1-(2-fluorophenyl)-N-methyl-2-((3-methylisoxazolo[5,4-b]pyridin-5-yl)sulfonyl-)2,4,5,6-tetrahydrocyclopenta[c]pyrrol-4-amine], the IC50 was 2820 nM.

The molecule `CNC1CCc2c1cn(Cc1cccc(F)c1)c2-c1ccccc1F` (centres unmarked) [Example 108, 2-(3-fluorobenzyl)-1-(2-fluorophenyl)-N-methyl-2,4,5,6-tetrahydrocyclopenta[c]pyrrol-4-amine] registered an IC50 of 5650 nM.

`COc1cccc(S(=O)(=O)n2cc3c(c2-c2ccccc2F)CCCC3N(C)C)c1` (centres unmarked) [Example 140, 1-(2-fluorophenyl)-2-((3-methoxyphenyl)sulfonyl)-N,N-dimethyl-4,5,6,7-tetrahydro-2H-isoindole-4-amine] showed an IC50 of 7000 nM.

`CCNC1CCCCc2c1cn(S(=O)(=O)c1cccc(Cl)c1)c2-c1ccccc1F` (centres unmarked) [Example 147, 2-((3-chlorophenyl)sulfonyl)-N-ethyl-1-(2-fluorophenyl)-2,4,5,6,7,8-hexahydrocyclohepta[c]pyrrol-4-amine] returned an IC50 of 7040 nM.

In turn, `CNC1CCc2c1cn(S(=O)(=O)c1ccc(C)nc1Cl)c2-c1ccccc1F` (centres unmarked) [Example 99, 2-((2-chloro-6-methylpyridin-3-yl)sulfonyl)-1-(2-fluorophenyl)-N-methyl-2,4,5,6-tetrahydrocyclopenta[c]pyrrol-4-amine] yielded an IC50 of 6780 nM.

Molecule `CNC1CCc2c1cn(S(=O)(=O)c1ccc(C#N)cc1Cl)c2-c1ccccc1F` (centres unmarked) [Example 67, 3-chloro-4-((1-(2-fluorophenyl)-4-(methylamino)-5,6-dihydrocyclopenta[c]pyrrol-2(4H)-yl)sulfonyl)benzonitrile] showed an IC50 of 1260 nM.

In the case of `CN(C)C1CCCc2c1cn(S(=O)(=O)c1cccc(OC(F)(F)F)c1)c2-c1ccccc1F` (centres unmarked) [Example 141, 1-(2-fluorophenyl)-N,N-dimethyl-2-((3-(trifluoromethoxy)phenyl)sulfonyl)-4,5,6,7-tetrahydro-2H-isoindole-4-amine], the IC50 stood at 10600 nM.

In the case of `CNC1CCc2c1cn(S(=O)(=O)c1cc(Cl)ccc1Cl)c2-c1ccc(C)cc1F` (centres unmarked) [Example 72, 2-((2,5-dichlorophenyl)sulfonyl)-1-(2-fluoro-4-methylphenyl)-N-methyl-2,4,5,6-tetrahydrocyclopenta[c]pyrrol-4-amine], the half-inhibitory concentration (IC50) is 480 nM.

Turning to `Cc1oc(=O)oc1CN(C)C1CCc2c1cn(S(=O)(=O)c1cccc(F)c1)c2-c1ccc(F)cc1F` (centres unmarked) [Example 117, 4-(((1-(2,4-difluorophenyl)-2-((3-fluorophenyl)sulfonyl)-2,4,5,6-tetrahydrocyclopenta[c]pyrrol-4-yl)(methyl)amino)methyl)-5-methyl-1,3-dioxol-2-one], half-maximal inhibition (IC50) was put at 2440 nM.

On to `CNC1CCc2c1cn(S(=O)(=O)c1nccn1C)c2-c1ccccc1F` (centres unmarked) [Example 101, 1-(2-fluorophenyl)-N-methyl-2-((1-methyl-1H-imidazol-2-yl)sulfonyl)-2,4,5,6-tetrahydrocyclopenta[c]pyrrol-4-amine], for which the IC50 amounted to 18700 nM.

For the molecule `CNC1CCc2c1cn(S(=O)(=O)c1c(Cl)cc(C(F)(F)F)cc1Cl)c2-c1ccccc1F` (centres unmarked) [Example 86, 2-((2,6-dichloro-4-(trifluoromethyl)phenyl)sulfonyl)-1-(2-fluorophenyl)-N-methyl-2,4,5,6-tetrahydrocyclopenta[c]pyrrol-4-amine], it took 5950 nM to reach half-maximal inhibition (IC50).

The molecule `CNC1CCc2c1cn(S(=O)(=O)c1cc(Cl)cc(Cl)c1)c2-c1cc(Cl)ccc1Cl` (centres unmarked) [Example 79, 1-(2,5-dichlorophenyl)-2-((3,5-dichlorophenyl)sulfonyl)-N-methyl-2,4,5,6-tetrahydrocyclopenta[c]pyrrol-4-amine] gave an IC50 of 770 nM.

`CNC1CCc2c1cn(S(=O)(=O)c1cccc(Cl)c1)c2-c1cc(Cl)ccc1F` (centres unmarked) [Example 22, 1-(5-chloro-2-fluorophenyl)-2-((3-chlorophenyl)sulfonyl)-N-methyl-2,4,5,6-tetrahydrocyclopenta[c]pyrrol-4-amine] displayed a 50% inhibitory concentration (IC50) of 450 nM.

`CNC1CCc2c1cn(S(=O)(=O)c1cccc(Cl)c1)c2-c1ccc(C(F)(F)F)cc1` (centres unmarked) [Example 16, 2-((3-chlorophenyl)sulfonyl)-N-methyl-1-(4-(trifluoromethyl)phenyl)-2,4,5,6-tetrahydrocyclopenta[c]pyrrol-4-amine] registered a half-inhibitory concentration (IC50) of 970 nM.

Molecule `CNC1CCc2c1cn(S(=O)(=O)c1cccc(Cl)c1)c2-c1cccc(C)c1` (centres unmarked) [Example 8, 2-((3-chlorophenyl)sulfonyl)-N-methyl-1-(m-tolyl)-2,4,5,6-tetrahydrocyclopenta[c]pyrrol-4-amine] came in with an IC50 of 750 nM.

`CNC1CCc2c1cn(S(=O)(=O)c1cccc(Cl)c1)c2-c1cc(Cl)cc(Cl)c1` (centres unmarked) [Example 25, 2-((3-chlorophenyl)sulfonyl)-1-(3,5-dichlorophenyl)-N-methyl-2,4,5,6-tetrahydrocyclopenta[c]pyrrol-4-amine] yielded an IC50 of 790 nM.

For the molecule `CNC1CCc2c1cn(S(=O)(=O)c1cccnc1)c2-c1cc(Cl)cc(C)c1F` (centres unmarked) [Example 93, 1-(5-chloro-2-fluoro-3-methylphenyl)-N-methyl-2-(pyridin-3-ylsulfonyl)-2,4,5,6-tetrahydrocyclopenta[c]pyrrol-4-amine], the IC50 amounted to 340 nM.

For the molecule `CNC1CC(C)(C)c2c1cn(S(=O)(=O)c1cccc(Cl)c1)c2-c1ccccc1F` (centres unmarked) [Example 106, 2-((3-chlorophenyl)sulfonyl)-1-(2-fluorophenyl)-N,6,6-trimethyl-2,4,5,6-tetrahydrocyclopenta[c]pyrrol-4-amine], inhibition was half-maximal at 3300 nM (IC50).

As for `CNC1CCc2c1cn(S(=O)(=O)c1cnc3c(c1)c(C)nn3C)c2-c1ccccc1F` (centres unmarked) [Example 102, 2-((1,3-dimethyl-1H-pyrazolo[3,4-b]pyridin-5-yl)sulfonyl)-1-(2-fluorophenyl)-N-methyl-2,4,5,6-tetrahydrocyclopenta[c]pyrrol-4-amine], the IC50 worked out at 10000 nM.

In turn, `CNC1CCc2c1cn(S(=O)(=O)c1cccc(Cl)c1)c2-c1ccc(OC)cc1` (centres unmarked) [Example 14, 2-((3-chlorophenyl)sulfonyl)-1-(4-methoxyphenyl)-N-methyl-2,4,5,6-tetrahydrocyclopenta[c]pyrrol-4-amine] displayed a half-maximal inhibitory concentration (IC50) of 1260 nM.

Consider `CNC1CCc2c1cn(S(=O)(=O)c1cccc(Cl)c1)c2-c1ccc(C)o1` (centres unmarked) [Example 32, 2-((3-chlorophenyl)sulfonyl)-N-methyl-1-(5-methylfuran-2-yl)-2,4,5,6-tetrahydrocyclopenta[c]pyrrol-4-amine], for which the 50% inhibitory concentration (IC50) is 450 nM.

As to `CNC1CCc2c1cn(S(=O)(=O)c1cc(Cl)ccc1Cl)c2-c1ccc(F)cc1F` (centres unmarked) [Example 71, 2-((2,5-dichlorophenyl)sulfonyl)-1-(2,4-difluorophenyl)-N-methyl-2,4,5,6-tetrahydrocyclopenta[c]pyrrol-4-amine], the IC50 worked out at 670 nM.

Consider `CNC1CCc2c1cn(S(=O)(=O)c1cccc(Cl)c1)c2-c1cccnc1C(F)(F)F` (centres unmarked) [Example 38], for which the IC50 turned out to be 5820 nM.

The molecule `CNC1CCc2c1cn(S(=O)(=O)c1ccc(F)cc1)c2-c1ccc(C)cc1F` (centres unmarked) [Example 60, 1-(2-fluoro-4-methylphenyl)-2-((4-fluorophenyl)sulfonyl)-N-methyl-2,4,5,6-tetrahydrocyclopenta[c]pyrrol-4-amine] yielded a 50% inhibitory concentration (IC50) of 420 nM.

The values above are taken from patent publication US10039747B2, “Tetrahydrocyclopentapyrrole derivatives and a method for preparing the same” (Daewoong Pharmaceutical Co., Ltd., priority 2013, dated 2018).
